Measurements: ChEMBL document CHEMBL1130170, “Orally active trifluoromethyl ketone inhibitors of human leukocyte elastase” (J Med Chem, 1997)
Where a SMILES comes first, the peptide text is derived from it. The star is where a group is joined. CF3 = FC(F)(F)*; Moc = COC(=O)*

Columns and labels:
Neutrophil elastase = biological target: T1, Neutrophil elastase (Homo sapiens, UniProt P08246); assay: Binding affinity for human leukocyte elastase
T1 sequence (P08246 whole entry): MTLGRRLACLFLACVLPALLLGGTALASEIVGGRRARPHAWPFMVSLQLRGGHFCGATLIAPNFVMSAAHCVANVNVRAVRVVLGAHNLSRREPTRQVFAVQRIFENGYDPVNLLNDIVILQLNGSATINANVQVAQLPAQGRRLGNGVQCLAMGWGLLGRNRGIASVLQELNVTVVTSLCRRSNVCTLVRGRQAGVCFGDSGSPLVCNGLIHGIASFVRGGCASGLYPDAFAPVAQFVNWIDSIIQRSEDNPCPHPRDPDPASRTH

[1] = Intravenous integrated area under the concentration vs time curve, for compound in hamster plasma; type: ADME, organism-based; conditions: cricetinae
Monoamine oxidase = biological target: T2, Monoamine oxidase (Homo sapiens, UniProt P21397+P27338); assay: Binding affinity for human plasma monoamine oxidase; No inhibition at 188 uM (highest concentration tested); type: cell-free
T2 sequence (P21397 whole entry): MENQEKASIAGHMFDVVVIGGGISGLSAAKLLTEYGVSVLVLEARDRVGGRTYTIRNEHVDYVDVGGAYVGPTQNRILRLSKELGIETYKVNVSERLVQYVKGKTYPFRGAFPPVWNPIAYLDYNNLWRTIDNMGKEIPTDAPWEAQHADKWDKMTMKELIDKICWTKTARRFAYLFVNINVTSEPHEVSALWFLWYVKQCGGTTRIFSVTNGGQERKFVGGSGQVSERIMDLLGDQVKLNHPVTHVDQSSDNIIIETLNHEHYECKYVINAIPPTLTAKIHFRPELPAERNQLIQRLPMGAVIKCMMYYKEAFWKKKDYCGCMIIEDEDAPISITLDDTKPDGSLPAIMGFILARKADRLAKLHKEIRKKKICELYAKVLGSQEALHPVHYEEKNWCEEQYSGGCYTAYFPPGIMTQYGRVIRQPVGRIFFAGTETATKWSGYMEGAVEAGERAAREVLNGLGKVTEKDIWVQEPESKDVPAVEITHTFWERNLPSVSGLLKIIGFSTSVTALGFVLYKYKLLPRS
T2 sequence (P27338 whole entry): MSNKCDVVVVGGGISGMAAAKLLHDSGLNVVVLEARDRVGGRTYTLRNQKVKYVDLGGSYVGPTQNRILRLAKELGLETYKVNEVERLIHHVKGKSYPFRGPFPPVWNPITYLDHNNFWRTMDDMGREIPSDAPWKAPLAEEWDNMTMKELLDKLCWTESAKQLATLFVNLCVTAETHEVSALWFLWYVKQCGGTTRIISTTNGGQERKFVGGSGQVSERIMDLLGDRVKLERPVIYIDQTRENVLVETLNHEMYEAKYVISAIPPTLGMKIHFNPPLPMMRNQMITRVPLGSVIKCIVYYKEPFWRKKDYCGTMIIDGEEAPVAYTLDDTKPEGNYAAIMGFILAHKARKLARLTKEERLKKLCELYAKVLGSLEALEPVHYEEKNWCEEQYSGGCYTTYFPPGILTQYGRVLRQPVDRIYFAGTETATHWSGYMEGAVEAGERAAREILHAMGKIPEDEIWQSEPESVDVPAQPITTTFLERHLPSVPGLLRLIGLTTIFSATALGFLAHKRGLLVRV

Cathepsin G = biological target: T3, Cathepsin G (Homo sapiens, UniProt P08311); assay: Binding affinity for human leukocyte cathepsin G; No inhibition at 188 uM (highest concentration tested)
T3 sequence (P08311 whole entry): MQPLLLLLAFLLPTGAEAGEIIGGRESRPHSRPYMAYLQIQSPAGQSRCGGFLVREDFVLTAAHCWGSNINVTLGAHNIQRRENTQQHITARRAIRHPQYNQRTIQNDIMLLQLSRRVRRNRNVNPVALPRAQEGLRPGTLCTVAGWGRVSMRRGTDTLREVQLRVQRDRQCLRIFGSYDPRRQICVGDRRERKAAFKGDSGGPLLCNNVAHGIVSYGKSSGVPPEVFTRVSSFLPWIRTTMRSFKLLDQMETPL

Cricetinae gen. sp. = assay: Effective dose in the Acute Hemarrhagic Assay model after oral administration; type: functional, Cricetulus griseus
[2] = biological target: T4, Mast cell carboxypeptidase A (Homo sapiens, UniProt P15088); assay: Binding affinity for carboxypeptidase A; No inhibition at 188 uM (highest concentration tested)
T4 sequence (P15088 whole entry): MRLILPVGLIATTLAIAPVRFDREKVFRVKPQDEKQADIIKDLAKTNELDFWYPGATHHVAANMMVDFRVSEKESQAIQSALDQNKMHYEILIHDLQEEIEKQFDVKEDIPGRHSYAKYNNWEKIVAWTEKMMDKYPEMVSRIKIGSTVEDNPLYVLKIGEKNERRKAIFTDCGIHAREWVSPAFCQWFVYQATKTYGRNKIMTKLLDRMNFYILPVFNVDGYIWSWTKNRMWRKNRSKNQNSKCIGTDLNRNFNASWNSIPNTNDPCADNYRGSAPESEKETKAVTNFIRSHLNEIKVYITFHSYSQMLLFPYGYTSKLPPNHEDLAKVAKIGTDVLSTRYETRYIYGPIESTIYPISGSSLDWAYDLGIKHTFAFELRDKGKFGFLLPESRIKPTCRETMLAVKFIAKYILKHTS

Serine protease 1 [3] = biological target: T5, Serine protease 1 (Homo sapiens, UniProt P07477); assay: Binding affinity for human pancreatic trypsin
[4] = Ratio of intravenous to oral integrated area under the concentration vs time curve, for compound in dog plasma; type: ADME, organism-based, Canis lupus familiaris
[5] = +Ratio of intravenous to oral integrated area under the concentration vs time curve, for compound in dog plasma; type: ADME, organism-based, Canis lupus familiaris
Acetylcholinesterase = Acetylcholinesterase (Homo sapiens, UniProt P22303); assay: Binding affinity for human erythrocyte Acetylcholinesterase; No inhibition at 188 uM (highest concentration tested)
Serine protease 1 [6] = biological target: T5, Serine protease 1; assay: Binding affinity for human pancreatic trypsin; […]

T5 sequence (P07477 whole entry): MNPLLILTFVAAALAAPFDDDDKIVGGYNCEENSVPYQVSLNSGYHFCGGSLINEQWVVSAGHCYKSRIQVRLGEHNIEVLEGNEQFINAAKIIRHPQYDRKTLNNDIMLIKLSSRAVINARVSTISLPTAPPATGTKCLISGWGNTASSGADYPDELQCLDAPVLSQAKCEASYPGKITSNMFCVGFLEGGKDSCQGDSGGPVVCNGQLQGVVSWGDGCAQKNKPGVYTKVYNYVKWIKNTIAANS
Chain of Acetylcholinesterase (P22303 whole entry): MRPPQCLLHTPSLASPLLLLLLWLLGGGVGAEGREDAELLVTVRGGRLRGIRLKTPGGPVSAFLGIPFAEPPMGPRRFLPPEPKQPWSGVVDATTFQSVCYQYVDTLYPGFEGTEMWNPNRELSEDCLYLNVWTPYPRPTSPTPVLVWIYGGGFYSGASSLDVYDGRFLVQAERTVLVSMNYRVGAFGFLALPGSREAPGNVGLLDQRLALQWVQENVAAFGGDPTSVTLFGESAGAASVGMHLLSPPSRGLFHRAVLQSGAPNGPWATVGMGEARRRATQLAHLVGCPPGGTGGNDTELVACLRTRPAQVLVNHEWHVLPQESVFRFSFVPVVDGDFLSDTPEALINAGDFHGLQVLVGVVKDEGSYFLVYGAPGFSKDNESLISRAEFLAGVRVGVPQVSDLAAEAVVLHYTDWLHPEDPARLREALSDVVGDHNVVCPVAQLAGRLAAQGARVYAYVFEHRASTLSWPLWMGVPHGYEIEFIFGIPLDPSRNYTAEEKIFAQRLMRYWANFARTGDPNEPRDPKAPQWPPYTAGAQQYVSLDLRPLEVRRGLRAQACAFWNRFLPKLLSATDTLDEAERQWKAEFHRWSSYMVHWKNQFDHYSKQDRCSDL

Ki (Neutrophil elastase) [µM]	Ki (Cathepsin G)	Ki [2]	Ki (Serine protease 1 [3]) [µM]	bioavailability [4] [%]	Compound	AUC [1] [ng·h/mL]	Ki (Monoamine oxidase)	ED50 (Cricetinae gen. sp.) [mg/kg]	bioavailability [5] [%]	Ki (Acetylcholinesterase)	Ki (Serine protease 1 [6])
0.013	No inhibition	No inhibition	66.6	70	COC(=O)N[C@H](C(=O)N1CCC[C@H]1C(=O)N[C@H](C(=O)C(F)(F)F)C(C)C)C(C)C (Moc-Val-Pro-Val-CF3)	2890	No inhibition	2	–	–	–
–	–	–	–	–	COc1ccc(C(=O)N[C@H](C(=O)N2CCC[C@H]2C(=O)N[C@H](C(=O)C(F)(F)F)C(C)C)C(C)C)cc1 (stereo in doubt; 1k)	1360	No inhibition	4.9	39	No inhibition	No inhibition
